Active and inactive are the calls of the source. Rule as the data show it, for most assays here: actives have a measured EC50 and inactives only a lower limit.
Experiments:
[1] = target: T1, Heat shock factor protein 1 (Mus musculus, UniProt P38532); assay: decrease of HSF1-responsive luciferase luminescence – cell-based, NIH3T3, dose retest, confirmation (AID 2382); assay type: functional;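 also: NIH3T3 fibroblasts with HSF1-driven luciferase reporter stressed by proteasome inhibitor MG132; luminescence from HSF1-driven luciferase expression after 8 hours of MG132 stress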
T1 sequence (P38532 whole entry): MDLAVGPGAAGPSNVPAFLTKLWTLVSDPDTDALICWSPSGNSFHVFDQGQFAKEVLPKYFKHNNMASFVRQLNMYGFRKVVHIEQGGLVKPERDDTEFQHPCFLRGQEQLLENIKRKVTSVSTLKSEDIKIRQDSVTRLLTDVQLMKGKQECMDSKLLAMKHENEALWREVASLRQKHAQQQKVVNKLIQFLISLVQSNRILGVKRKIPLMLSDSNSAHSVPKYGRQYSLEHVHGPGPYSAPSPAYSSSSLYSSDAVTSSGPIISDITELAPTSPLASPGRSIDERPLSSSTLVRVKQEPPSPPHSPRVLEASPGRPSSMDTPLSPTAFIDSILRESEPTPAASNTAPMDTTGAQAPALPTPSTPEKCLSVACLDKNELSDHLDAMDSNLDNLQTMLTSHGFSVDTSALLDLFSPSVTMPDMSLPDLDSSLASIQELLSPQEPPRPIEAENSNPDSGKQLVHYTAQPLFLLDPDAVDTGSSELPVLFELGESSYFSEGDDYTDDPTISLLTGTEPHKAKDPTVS

[2] = tested on: Streptococcus; assay: GAS UMAA2166 growth inhibition – luminescence, BacTiterGlo, counter-screen for streptokinase expression inhibitor project, dose response (AID 1915); assay type: functional, organism-based;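 also: potency for reduction of bacterial viability or growth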
[3] = target: T2, Streptokinase A (Streptococcus pyogenes serotype M1, UniProt P10520); assay: viability-normalized secreted streptokinase activity reduction – plasminogen activation absorbance, OD405, dose response (AID 1914); assay type: functional, Streptococcus pyogenes M1 GAS;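 also: secreted streptokinase activity via plasminogen activation per viability signal from cell pellet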
T2 sequence (P10520 whole entry): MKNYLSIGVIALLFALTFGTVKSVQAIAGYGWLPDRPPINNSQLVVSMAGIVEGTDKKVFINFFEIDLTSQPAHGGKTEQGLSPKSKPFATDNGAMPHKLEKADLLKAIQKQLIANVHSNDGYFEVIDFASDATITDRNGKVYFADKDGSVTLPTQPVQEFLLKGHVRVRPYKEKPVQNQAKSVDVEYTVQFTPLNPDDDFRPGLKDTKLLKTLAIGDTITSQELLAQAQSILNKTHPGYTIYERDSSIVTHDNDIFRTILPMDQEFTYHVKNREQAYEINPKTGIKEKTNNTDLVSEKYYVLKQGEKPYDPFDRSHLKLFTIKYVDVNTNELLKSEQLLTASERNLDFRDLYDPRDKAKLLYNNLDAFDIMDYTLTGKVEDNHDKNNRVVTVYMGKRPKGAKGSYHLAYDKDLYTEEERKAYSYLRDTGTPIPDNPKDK

[4] = tested on: Streptococcus sp. 'group A'; assay: Streptococcus pyogenes SK(-)GAS viability under kanamycin – luminescence, BacTiterGlo, confirmation, counter-screen for streptokinase expression inhibitor project, dose response (AID 1900); assay type: functional, organism-based
[5] = target: T3, Rac GTPase-activating protein 1 (Homo sapiens, UniProt Q9H0H5); assay: blockers of MgcRacGAP-driven Rac1 GTP hydrolysis – biochemical, ADP Hunter fluorescence, primary and confirmatory, confirmation (AID 624330); assay type: functional
T3 sequence (Q9H0H5 whole entry): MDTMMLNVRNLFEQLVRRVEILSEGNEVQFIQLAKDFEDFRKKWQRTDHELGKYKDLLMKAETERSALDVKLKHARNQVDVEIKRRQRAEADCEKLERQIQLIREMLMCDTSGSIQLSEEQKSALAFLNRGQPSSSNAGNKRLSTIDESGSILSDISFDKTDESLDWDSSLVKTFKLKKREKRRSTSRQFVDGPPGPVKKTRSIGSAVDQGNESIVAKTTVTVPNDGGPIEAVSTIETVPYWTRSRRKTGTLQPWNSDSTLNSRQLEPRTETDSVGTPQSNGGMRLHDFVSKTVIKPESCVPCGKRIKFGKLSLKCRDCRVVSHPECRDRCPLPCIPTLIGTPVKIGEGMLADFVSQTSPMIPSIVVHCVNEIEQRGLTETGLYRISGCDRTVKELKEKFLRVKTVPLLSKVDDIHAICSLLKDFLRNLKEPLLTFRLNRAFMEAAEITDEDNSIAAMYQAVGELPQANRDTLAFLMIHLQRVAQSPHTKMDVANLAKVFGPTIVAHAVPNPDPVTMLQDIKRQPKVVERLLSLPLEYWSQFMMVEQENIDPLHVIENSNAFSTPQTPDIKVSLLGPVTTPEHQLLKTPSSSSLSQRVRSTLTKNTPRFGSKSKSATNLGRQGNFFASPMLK

[6] = target: Luciferin 4-monooxygenase (Photinus pyralis, UniProt P08659); assay: inhibition of purified Photinus pyralis luciferase – biochemical, luminescence, dose response (AID 1891)
Luciferin 4-monooxygenase, sequence (P08659 whole entry): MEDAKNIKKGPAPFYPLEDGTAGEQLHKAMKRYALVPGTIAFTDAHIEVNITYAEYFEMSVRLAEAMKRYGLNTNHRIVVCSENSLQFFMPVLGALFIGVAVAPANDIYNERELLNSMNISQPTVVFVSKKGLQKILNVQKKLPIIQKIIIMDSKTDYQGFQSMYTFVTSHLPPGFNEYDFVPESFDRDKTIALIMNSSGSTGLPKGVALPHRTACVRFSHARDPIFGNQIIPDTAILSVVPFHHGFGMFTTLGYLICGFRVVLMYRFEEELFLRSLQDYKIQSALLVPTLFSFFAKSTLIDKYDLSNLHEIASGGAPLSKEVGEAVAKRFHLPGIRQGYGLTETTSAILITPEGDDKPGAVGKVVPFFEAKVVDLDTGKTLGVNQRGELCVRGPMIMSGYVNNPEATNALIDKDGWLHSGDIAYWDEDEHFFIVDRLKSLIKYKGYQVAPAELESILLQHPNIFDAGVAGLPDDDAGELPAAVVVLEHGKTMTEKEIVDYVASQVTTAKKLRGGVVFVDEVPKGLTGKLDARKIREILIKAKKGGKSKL

[7] = Luminescence Cell-Based Dose Confirmation HTS to Identify Inhibitors of Platelet Dense Granule Release. [Related pubchem assays: 1663 (Primary HTS), 1678 (Summary of Project)]; assay type: functional
[8] = Luminescence Cell-Based Dose Retest to Confirm Inhibitors of Cancer Stem Cells. [Related pubchem assays (depositor defined):AID2717, AID2721]; assay type: functional; conditions: Homo sapiens
[9] = target: Paired box protein Pax-8 (Homo sapiens, UniProt Q06710); assay: PAX8 transcriptional activity inhibition in RMG-I – RMG-I cells, luciferase, cherry-pick, dose response (AID 687027); assay type: functional, cell-based;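 also: luciferase reporter driven by Pax8 target thyroperoxidase promoter measured by SteadyGlo luminescence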
Paired box protein Pax-8, sequence (Q06710 whole entry): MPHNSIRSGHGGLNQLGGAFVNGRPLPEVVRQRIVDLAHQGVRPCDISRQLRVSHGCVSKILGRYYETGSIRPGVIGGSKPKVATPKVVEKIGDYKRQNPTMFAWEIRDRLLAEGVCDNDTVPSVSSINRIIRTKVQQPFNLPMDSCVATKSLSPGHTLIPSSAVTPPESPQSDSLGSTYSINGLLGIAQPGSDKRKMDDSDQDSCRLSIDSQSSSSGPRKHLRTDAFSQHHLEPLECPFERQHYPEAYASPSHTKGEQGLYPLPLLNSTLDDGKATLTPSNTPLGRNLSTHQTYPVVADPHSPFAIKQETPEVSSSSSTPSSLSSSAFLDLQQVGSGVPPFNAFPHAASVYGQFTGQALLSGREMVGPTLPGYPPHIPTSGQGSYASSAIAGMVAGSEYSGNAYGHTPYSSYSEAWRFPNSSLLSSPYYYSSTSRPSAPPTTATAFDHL

For `Cn1c(=O)c2c(SCC(=O)N3CCCc4ccccc43)nc(C3CC3)nc2n(C)c1=O`, the EC50 [1] was > 195 µM (not active).
In the case of `COc1ccc(NC(=O)C2CC2)cc1-n1cnnn1`, the EC50 [1] is reported as > 195 µM (not active).
With `Oc1ccc(-c2c(C3=CCCCC3)sc3ccccc23)cc1` the EC50 [2] was 7.29 µM (active), the EC50 [3] was 55.7 µM (inconclusive) and the EC50 [4] was 2.48 µM (active).
In the case of `CCN(CC)CCCNCC(=O)Nc1ccc2c(c1)CCC2`, the IC50 [5] is reported as 117 µM (active).
With `COc1ccc(N(C(=O)c2ccc(F)cc2)C2=CC3CCC(C2)N3C)cc1` (stereo unspecified) the EC50 [6] was > 112 µM (not active) and the EC50 [7] was > 112 µM (not active).
With `CCOC(=O)c1cnn(-c2nc3c(C)cccc3s2)c1C(F)(F)F` the EC50 [2] was 16.6 µM (active), the EC50 [3] was 22.3 µM (active) and the EC50 [4] was 9.35 µM (active).
In the case of `C[n+]1ccc(C=NNc2nc(Cl)c(C#N)c(Cl)c2Cl)cc1`, the EC50 [2] is reported as > 150 µM (not active), the EC50 [3] is reported as > 150 µM (not active) and the EC50 [4] is reported as 33 µM (active).
With `COc1ccc(N2CCN(C(=O)Cc3ccc(-n4c(=O)[nH]c5ccccc5c4=O)cc3)CC2)cc1` the EC50 [1] was > 195 µM (not active).
For `CCOC(=O)c1[nH]c2ccc(OC)cc2c1N=C(S)N1CCN(C(=O)OCC)CC1`, the EC50 [6] was > 112 µM (not active) and the EC50 [7] was > 112 µM (not active).
With `Nc1c(Cl)ncnc1NCCc1ccc(O)cc1` the IC50 [5] was 99.1 µM (active).
With `CSc1nc(N)n2nc(-c3ccccc3)cc2n1` the EC50 [6] was 3.8 µM (active) and the EC50 [7] was 5.68 µM (active).
With `CCOC(=O)c1sc(NC(=O)CC(C)c2ccccc2)nc1C` (stereo unspecified) the EC50 [6] was > 112 µM (not active) and the EC50 [7] was > 112 µM (not active).
For `S=C(c1ccc2c(c1)OCO2)N1CCCCC1`, the EC50 [6] was > 112 µM (not active) and the EC50 [7] was > 112 µM (not active).
With `O=C(Nc1ccc2c(c1)CCC2)c1cc(S(=O)(=O)Nc2ccc(F)cc2)c(Cl)cc1Cl` the AC50 [8] was 4.35 µM (active), the EC50 [2] was 15.2 µM (active) and the EC50 [3] was 3.26 µM (active). The EC50 [4] was 3.5 µM (active).
For `COc1ccc(S(=O)(=O)NCC2CCCN(C(=O)C3CCCC3)C2)cc1` (stereo unspecified), the EC50 [1] was > 195 µM (not active).
For `Cc1ccc(C)c(CSC2=NCCN2S(=O)(=O)c2ccccc2)c1`, the EC50 [2] was > 150 µM (not active), the EC50 [3] was 17.3 µM (active) and the EC50 [4] was 21.7 µM (active).
In the case of `CCOC(=O)C1=C(COC(=O)/C=C/c2ccc(O)c(OC)c2)NC(=O)NC1C` (stereo unspecified), the IC50 [5] is reported as 59.4 µM (active).
With `Sc1nnc(-c2cnccn2)n1-c1ccccc1` the EC50 [1] was > 195 µM (not active).
In the case of `FC(F)(F)c1cc(N2CCN(Cc3ccccc3)CC2)c2ccccc2n1`, the EC50 [2] is reported as > 150 µM (not active), the EC50 [3] is reported as > 150 µM (not active) and the EC50 [4] is reported as > 150 µM (not active).
With `CCN(CC)c1ccc(-n2cc3c(=O)n(C)c(=O)n(C)c3c2)cc1` the EC50 [2] was 39.3 µM (active), the EC50 [3] was > 150 µM (not active) and the EC50 [4] was 4.91 µM (active).
With `COc1ccc(OC(C)C(=O)N2CCC(C)CC2)cc1` (stereo unspecified) the EC50 [1] was > 195 µM (not active).
With `COc1ccc(/C=N/Nc2nccnc2Cl)cc1` the EC50 [6] was 3.76 µM (active) and the EC50 [7] was 1.15 µM (active).
With `Nc1ccc2nc(-c3ccccn3)[nH]c2c1` the EC50 [1] was 23.2 µM (active).
In the case of `C[C@@H]1CCCCO[C@H](CN(C)Cc2ccc(C(F)(F)F)cc2)[C@H](C)CN([C@@H](C)CO)C(=O)c2cc(NS(=O)(=O)c3cccs3)ccc2O1`, the AC50 [9] is reported as 9.41 µM (active).
In the case of `C/C(=N\N=C(/N)SC1CC(=O)N(c2ccc(Cl)c(Cl)c2)C1=O)c1cccs1` (stereo unspecified), the AC50 [8] is reported as 3.86 µM (active), the EC50 [2] is reported as 8.08 µM (active) and the EC50 [3] is reported as 7.44 µM (inconclusive). For the same molecule, the EC50 [4] was 2.88 µM (active).
For `Nc1c(S(=O)(=O)c2cccs2)c2nc3ccccc3nc2n1/N=C/c1cccc(O)c1`, the AC50 [8] was 3.99 µM (active), the EC50 [2] was 7.29 µM (active) and the EC50 [3] was > 150 µM (not active). The EC50 [4] was 3.26 µM (active).
For `O=C(O)c1ccc(/C=N\Nc2ccccn2)cc1`, the EC50 [6] was 3.56 µM (active) and the EC50 [7] was 2.54 µM (active).
For `COc1ccc(N2CCN(C(CNC(=O)CC(C)(C)C)c3ccc4c(c3)OCO4)CC2)cc1` (stereo unspecified), the IC50 [5] was 166 µM (active).

Source: ChEMBL document CHEMBL1201862, “PubChem BioAssay data set” (2004)
